Source: US7863449B2, “Modulators of muscarinic receptors” (Vertex Pharmaceuticals Incorporated, priority 2004, dated 2011)

Legend:
M1 muscarinic receptor = target: T1, M1 muscarinic receptor (Homo sapiens, UniProt P11229); test: Functional mobilization of intracellular calcium (FLIPR), M1-CHO cells; type: cell-based; conditions: for Emax: 100% efficacy is the maximum response obtained using Carbachol as a control; for M1 Activity: M1-CHO cells, FLIPR calcium mobilization
T1 construct: expressed in transfected cells; host or cells: CHO (M1-CHO)
T1 sequence (P11229 1-460): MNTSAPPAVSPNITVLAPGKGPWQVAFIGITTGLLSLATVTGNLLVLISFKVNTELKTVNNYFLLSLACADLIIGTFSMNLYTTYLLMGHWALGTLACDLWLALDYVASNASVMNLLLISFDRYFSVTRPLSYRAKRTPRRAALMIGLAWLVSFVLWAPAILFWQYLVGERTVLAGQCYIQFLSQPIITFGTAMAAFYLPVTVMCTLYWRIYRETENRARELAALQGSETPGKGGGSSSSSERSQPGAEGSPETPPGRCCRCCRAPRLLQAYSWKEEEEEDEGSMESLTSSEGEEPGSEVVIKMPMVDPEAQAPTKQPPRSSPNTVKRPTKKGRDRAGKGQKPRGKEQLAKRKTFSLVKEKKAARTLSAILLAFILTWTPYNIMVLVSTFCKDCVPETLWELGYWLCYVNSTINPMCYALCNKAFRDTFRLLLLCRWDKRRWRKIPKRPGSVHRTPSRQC
Summary of the method: (§1)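 Calcium flux recorded 60 s (ex 488, em 540 nm) in dye-loaded M1- or M4-CHO cells in pH 7.4 buffer with 1 mM probenecid. Inhibition measured against carbachol EC80 after 15 min compound pre-incubation or co-addition; agonism measured by compound addition alone. Final DMSO 0.5%.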

M4 muscarinic receptor = target: T2, M4 muscarinic receptor (Homo sapiens, UniProt P08173); test: Functional mobilization of intracellular calcium (FLIPR), M4-CHO cells; type: cell-based; conditions: for Emax: 100% efficacy is the maximum response obtained using Carbachol as a control; for M4 Activity: M4-CHO cells, FLIPR calcium mobilization
T2 construct: expressed in transfected cells; host or cells: CHO (M4-CHO)
T2 sequence (P08173 1-479): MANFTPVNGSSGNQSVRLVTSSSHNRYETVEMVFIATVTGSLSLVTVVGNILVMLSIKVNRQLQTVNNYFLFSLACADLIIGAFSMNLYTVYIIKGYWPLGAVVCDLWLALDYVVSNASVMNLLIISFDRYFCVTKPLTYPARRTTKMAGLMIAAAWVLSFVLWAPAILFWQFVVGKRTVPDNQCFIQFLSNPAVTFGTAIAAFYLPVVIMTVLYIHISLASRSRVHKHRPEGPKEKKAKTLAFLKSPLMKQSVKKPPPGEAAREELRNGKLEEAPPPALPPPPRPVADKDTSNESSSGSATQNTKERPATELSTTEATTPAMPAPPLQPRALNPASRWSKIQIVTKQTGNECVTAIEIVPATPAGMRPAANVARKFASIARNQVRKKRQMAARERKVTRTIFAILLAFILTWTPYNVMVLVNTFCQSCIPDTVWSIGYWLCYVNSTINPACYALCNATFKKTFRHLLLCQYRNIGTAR
Summary of the method: as §1

Row | Structure (SMILES) | Emax (M1 muscarinic receptor) [%] | M1 Activity (M1 muscarinic receptor) | Emax (M4 muscarinic receptor) [%] | M4 Activity (M4 muscarinic receptor)
1 | CCCOC(=O)N1C2CCC1CC(N1CCC3(CC1)CN(S(=O)(=O)CCC)Cc1ccccc13)C2 (stereo not drawn) [compound 353] | 25 to 100 | +++ (activity was measured to be less than 1.0 μM) | 25 to 100 | +++ (activity was measured to be less than 1.0 μM)
2 | CCOC(=O)N1C2CCC1CC(N1CCC3(CC1)CN(C(=O)C1CC1)Cc1ccccc13)C2.Cl (stereo not drawn) [compound 224, Ethyl 3-(2-(cyclopropanecarbonyl)-2,3-dihydro-1H-spiro[isoquinoline-4,4′-piperidine]-1′-yl)-8-azabicyclo-[3.2.1]octane-8-carboxylate hydrochloride] | 25 to 100 | +++ (activity was measured to be less than 1.0 μM) | 25 to 100 | +++ (activity was measured to be less than 1.0 μM)
3 | CC(=O)N1Cc2ccccc2C2(CCN(Cc3cccc(C)n3)CC2)C1 [compound 334] | < 25 | + (activity was measured to be greater than 5.0 μM) | < 25 | + (activity was measured to be greater than 5.0 μM)
4 | CCOC(=O)N1C2CCC1CC(N1CCC3(CC1)CN(C(=O)c1cc(C)oc1C)Cc1ccccc13)C2 (stereo not drawn) [compound 149] | < 25 | + (activity was measured to be greater than 5.0 μM) | 25 to 100 | +++ (activity was measured to be less than 1.0 μM)
5 | CC(=O)N1Cc2ccccc2C2(CCN(CC3CCCCO3)CC2)C1 (stereo not drawn) [compound 58] | < 25 | + (activity was measured to be greater than 5.0 μM) | < 25 | + (activity was measured to be greater than 5.0 μM)
6 | CCCS(=O)(=O)N1Cc2ccccc2C2(CCN(C3CC4CCC(C3)N4C(=O)O[C@@H]3CCOC3)CC2)C1 (stereo partly drawn) [compound 24] | 25 to 100 | +++ (activity was measured to be less than 1.0 μM) | 25 to 100 | +++ (activity was measured to be less than 1.0 μM)
7 | COCCOC(=O)N1Cc2ccccc2C2(CCN(C3CC4CCC(C3)N4C(=O)OCCOC)CC2)C1 (stereo not drawn) [compound 96] | 25 to 100 | +++ (activity was measured to be less than 1.0 μM) | 25 to 100 | +++ (activity was measured to be less than 1.0 μM)
8 | CCOC(=O)N1C2CCC1CC(N1CCC3(CC1)CN(c1ccc(C)c(C)c1)Cc1ccccc13)C2 (stereo not drawn) [compound 12] | 25 to 100 | +++ (activity was measured to be less than 1.0 μM) | 25 to 100 | +++ (activity was measured to be less than 1.0 μM)
9 | CN(C)S(=O)(=O)N1Cc2ccccc2C2(CCN(C3CC4CCC(C3)N4C(=O)OC3CCC3)CC2)C1 (stereo not drawn) [compound 131] | 25 to 100 | +++ (activity was measured to be less than 1.0 μM) | 25 to 100 | +++ (activity was measured to be less than 1.0 μM)
10 | CC(=O)N1Cc2ccccc2C2(CCN(Cc3ccccc3O)CC2)C1 [compound 297] | < 25 | + (activity was measured to be greater than 5.0 μM) | < 25 | + (activity was measured to be greater than 5.0 μM)
11 | CC(C)OC(=O)N1C2CCC1CC(N1CCC3(CC1)CN(C(=O)N(C)C)Cc1ccccc13)C2 (stereo not drawn) [compound 317] | 25 to 100 | +++ (activity was measured to be less than 1.0 μM) | 25 to 100 | +++ (activity was measured to be less than 1.0 μM)
12 | COCCOC(=O)N1Cc2ccccc2C2(CCN(C3CC4CCC(C3)N4C(=O)O[C@@H]3CCOC3)CC2)C1 (stereo partly drawn) [compound 138] | 25 to 100 | +++ (activity was measured to be less than 1.0 μM) | 25 to 100 | +++ (activity was measured to be less than 1.0 μM)
13 | COC(=O)N1CCC(CN2CCC3(CC2)CN(C(C)=O)Cc2ccccc23)CC1 [compound 74] | 25 to 100 | +++ (activity was measured to be less than 1.0 μM) | 25 to 100 | +++ (activity was measured to be less than 1.0 μM)
14 | CCCCNC(=O)N1Cc2ccccc2C2(CCN(C3CC4CCC(C3)N4C(=O)OCC)CC2)C1 (stereo not drawn) [compound 61] | 25 to 100 | +++ (activity was measured to be less than 1.0 μM) | 25 to 100 | +++ (activity was measured to be less than 1.0 μM)
15 | CCOC(=O)N1C2CCC1CC(N1CCC3(CC1)CN(S(C)(=O)=O)Cc1ccccc13)C2 (stereo not drawn) [compound 201] | 25 to 100 | +++ (activity was measured to be less than 1.0 μM) | 25 to 100 | +++ (activity was measured to be less than 1.0 μM)
16 | CCOC(=O)N1CCC(CN2CCC3(CC2)CN(C(=O)OC2CCC2)Cc2ccccc23)CC1 [compound 315] | 25 to 100 | +++ (activity was measured to be less than 1.0 μM) | 25 to 100 | +++ (activity was measured to be less than 1.0 μM)
17 | CCCOC(=O)N1C2CCC1CC(N1CCC3(CC1)CN(C(=O)N(C)C)Cc1ccccc13)C2 (stereo not drawn) [compound 7] | 25 to 100 | +++ (activity was measured to be less than 1.0 μM) | 25 to 100 | +++ (activity was measured to be less than 1.0 μM)
18 | CCCOC(=O)N1C2CCC1CC(N1CCC3(CC1)CN(C(=O)OC1CCC1)Cc1ccccc13)C2 (stereo not drawn) [compound 189] | 25 to 100 | +++ (activity was measured to be less than 1.0 μM) | 25 to 100 | +++ (activity was measured to be less than 1.0 μM)
19 | CCCCC(=O)N1Cc2ccccc2C2(CCN(C3CCN(C(=O)OCC)CC3)CC2)C1 [compound 122] | 25 to 100 | +++ (activity was measured to be less than 1.0 μM) | 25 to 100 | +++ (activity was measured to be less than 1.0 μM)
20 | CCOC(=O)N1C2CCC1CC(N1CCC3(CC1)CN(S(=O)(=O)c1ccc(-c4ccccc4)cc1)Cc1ccccc13)C2 (stereo not drawn) [compound 245] | 25 to 100 | ++ (activity was measured to be from 1.0 μM to 5.0 μM) | 25 to 100 | ++ (activity was measured to be from 1.0 μM to 5.0 μM)
21 | CCOC(=O)N1CCC(N2CCC3(CC2)CN(C(=O)CC)Cc2ccccc23)CC1 [compound 6] | 25 to 100 | +++ (activity was measured to be less than 1.0 μM) | 25 to 100 | +++ (activity was measured to be less than 1.0 μM)
22 | CC(=O)N1Cc2ccccc2C2(CCN(C3CCN(C(=O)O[C@@H]4CCOC4)CC3)CC2)C1 [compound 32] | 25 to 100 | +++ (activity was measured to be less than 1.0 μM) | 25 to 100 | +++ (activity was measured to be less than 1.0 μM)
23 | CCOC(=O)N1CCC(N2CCC3(CC2)CN(Cc2ccccc2)Cc2ccccc23)CC1 [compound 167] | 25 to 100 | ++ (activity was measured to be from 1.0 μM to 5.0 μM) | < 25 | +++ (activity was measured to be less than 1.0 μM)
24 | CCOC(=O)N1CCC(CN2CCC3(CC2)CN(C(=O)c2cc4ccccc4s2)Cc2ccccc23)CC1 [compound 80] | 25 to 100 | +++ (activity was measured to be less than 1.0 μM) | 25 to 100 | +++ (activity was measured to be less than 1.0 μM)
25 | COCCOC(=O)N1CCC(CN2CCC3(CC2)CN(C(C)=O)Cc2ccccc23)CC1 [compound 207] | 25 to 100 | + (activity was measured to be greater than 5.0 μM) | 25 to 100 | ++ (activity was measured to be from 1.0 μM to 5.0 μM)
26 | CC(=O)N1Cc2ccccc2C2(CCN(C3CC4CCC(C3)N4C(=O)OC3CCC3)CC2)C1 (stereo not drawn) [compound 348] | 25 to 100 | +++ (activity was measured to be less than 1.0 μM) | 25 to 100 | +++ (activity was measured to be less than 1.0 μM)
27 | CCOC(=O)N1C2CCC1CC(N1CCC3(CC1)CN(S(=O)(=O)c1ccc(C(F)(F)F)cc1)Cc1ccccc13)C2 (stereo not drawn) [compound 251] | 25 to 100 | +++ (activity was measured to be less than 1.0 μM) | 25 to 100 | +++ (activity was measured to be less than 1.0 μM)
